Tests used:
BGC-823 [1] = experiment: Antiproliferative activity against human BGC-823 cells assessed as cell growth inhibition incubated for 48 hrs by MTT assay; format: functional, cell-based; details: BGC-823, 48 h
HCT-116 = experiment: Antiproliferative activity against human HCT-116 cells assessed as cell growth inhibition incubated for 48 hrs by MTT assay; format: functional, cell-based; details: HCT-116, 48 h
HepG2 = experiment: Antiproliferative activity against human HepG2 cells assessed as cell growth inhibition incubated for 48 hrs by MTT assay; format: functional, cell-based; details: HepG2, 48 h
MCF7 = experiment: Antiproliferative activity against human MCF7 cells assessed as cell growth inhibition incubated for 48 hrs by MTT assay; format: functional, cell-based; details: MCF7, 48 h
HeLa = experiment: Antiproliferative activity against human HeLa cells assessed as cell growth inhibition incubated for 48 hrs by MTT assay; format: functional, cell-based
BGC-823 [2] = experiment: Induction of apoptosis in human BGC-823 cells assessed as viable cells at 1 uM incubated for 24 hrs by annexin-V-FITC and PI staining based flow cytometry analysis (reference value: 96.3%); format: functional; details: read-out: Activity
BGC-823 [3] = experiment: Induction of apoptosis in human BGC-823 cells assessed as early apoptotic cells at 1 uM incubated for 24 hrs by annexin-V-FITC and PI staining based flow cytometry analysis (reference value: 2.4%); format: functional
BGC-823 [4] = experiment: Induction of apoptosis in human BGC-823 cells assessed as late apoptotic cells at 1 uM incubated for 24 hrs by annexin-V-FITC and PI staining based flow cytometry analysis (reference value: 0.6%); format: functional
BGC-823 [5] = experiment: Induction of apoptosis in human BGC-823 cells assessed as necrotic cells at 1 uM incubated for 24 hrs by annexin-V-FITC and PI staining based flow cytometry analysis (reference value: 0.6%); format: functional
BGC-823 [6] = experiment: Antitumor activity against human BGC-823 cells xenografted in athymic BALB/c nude mouse assessed as tumor growth inhibition rate at 1.5 mg/kg, ip measured every 2 days for 21 days by curson caliper method relative to control; format: functional; details: BGC-823, 504 h, time 21 day, read-out: TGI
BGC-823 [7] = experiment: Antiproliferative activity against human BGC-823 cells assessed as cell growth inhibition at 0.5 uM incubated for 48 hrs by MTT assay relative to control; format: functional

Row | Compound | IC50 (BGC-823 [1]) [µM] | IC50 (HCT-116) [µM] | IC50 (HepG2) [µM] | IC50 (MCF7) [µM] | IC50 (HeLa) [µM] | viability at 1 µM (BGC-823 [2]) [%] | Activity (BGC-823 [3]) [%] | Activity (BGC-823 [4]) [%] | Activity (BGC-823 [5]) [%] | inhibition in vivo at 1.5 mg/kg (BGC-823 [6]) [%] | inhibition at 0.5 µM (BGC-823 [7]) [%]
1 | CC1=C(O)C(=O)C=C2C1=CC=C1[C@@]2(C)CC[C@@]2(C)[C@@H]3C[C@](C)(C(=O)O)CC[C@]3(C)CC[C@]12C [CELASTROL] | 1.1 | 1.9 | 1.5 | 1.7 | 1.7 | 79.7 | 16.1 | 4 | 0.2 | 76.5 | –
2 | CC1=C(O)C(=O)C=C2C1=CC=C1[C@@]2(C)CC[C@@]2(C)[C@@H]3C[C@](C)(C(=O)OCCCCn4cc([N+](=O)[O-])cn4)CC[C@]3(C)CC[C@]12C | 0.46 | 0.64 | 0.48 | 0.74 | 0.88 | – | – | – | – | – | > 50
3 | CC1=C(O)C(=O)C=C2C1=CC=C1[C@@]2(C)CC[C@@]2(C)[C@@H]3C[C@](C)(C(=O)OCCCCn4cccn4)CC[C@]3(C)CC[C@]12C | 0.47 | 0.89 | 0.86 | 1.1 | 1.1 | – | – | – | – | – | > 50
4 | COC(=O)c1cnn(CCCOC(=O)[C@]2(C)CC[C@]3(C)CC[C@]4(C)C5=CC=C6C(=CC(=O)C(O)=C6C)[C@]5(C)CC[C@@]4(C)[C@@H]3C2)c1 | 0.28 | 0.59 | 0.39 | 0.52 | 0.61 | – | – | – | – | – | > 50
5 | CCOC(=O)c1cnn(CCCCOC(=O)[C@]2(C)CC[C@]3(C)CC[C@]4(C)C5=CC=C6C(=CC(=O)C(O)=C6C)[C@]5(C)CC[C@@]4(C)[C@@H]3C2)c1 | 0.33 | 0.53 | 0.7 | 0.72 | 0.75 | – | – | – | – | – | > 50
6 | COC(=O)c1cnn(CCCCOC(=O)[C@]2(C)CC[C@]3(C)CC[C@]4(C)C5=CC=C6C(=CC(=O)C(O)=C6C)[C@]5(C)CC[C@@]4(C)[C@@H]3C2)c1 | 0.34 | 0.69 | 0.82 | 0.84 | 0.82 | – | – | – | – | – | > 50
7 | CC1=C(O)C(=O)C=C2C1=CC=C1[C@@]2(C)CC[C@@]2(C)[C@@H]3C[C@](C)(C(=O)OCCCCn4cc(C)cn4)CC[C@]3(C)CC[C@]12C | 0.43 | 0.88 | 0.84 | 1 | 0.91 | – | – | – | – | – | > 50

— ChEMBL document CHEMBL5120866, “Design and Synthesis of Novel Celastrol Derivatives as Potential Anticancer Agents against Gastric Cancer Cells” (J Nat Prod, 2022)
